Assays:
[1] = test system: CARP gene; assay: CARP gene expression in H9c2 cells, TaqMan PCR; assay type: cell-based, rat; settings: serum-free DMEM, 10 nM or 100 nM, 4 hours and 8 hours, at maximum
Method: H9c2 cell is a cell line derived from rat cardiomyocytes and was purchased from ATCC. The cells were incubated in DMEM medium supplemented with 10% calf serum. After recovery of cells using trypsin, the cells were inoculated on a 12-well plate in 100000 cells/well, followed by incubation in a 10% calf serum-containing DMEM medium for 12 hours. Thereafter, the medium was exchanged with a fresh serum-free DMEM medium, to which norepinephrine was supplemented in 10 nM or 100 nM, and the CARP gene expression level was quantitatively determined by TaqMan PCR with passage of 4 hours and 8 hours. Also, the copy number of […] gene (G3PDH) was quantitatively determined in a similar manner, and the copy number of CARP gene calculated was corrected by G3PDH. […] According to this system, the CARP gene expression can be quantitatively determined in response to various hypertrophic stimuli or in the apoptosis induction stage, and thus the system can be used for screening a CARP gene expression regulator. Moreover, by performing reporter gene assay using a promoter of the CARP gene, a low variation rate can be changed to a high variation rate to achieve high sensitization, thus enabling to high throughput screening.

[2] = test system: CARP gene; assay: CARP gene expression in primary neonatal rat cardiomyocytes, TaqMan quantification; assay type: cell-based; settings: serum-removed medium, added to 10 nM, 100 nM or 1000 nM, at maximum

Row | Structure (SMILES) | increase of expression level of CARP gene (corrected by G3PDH) [1] | increase of expression of the CARP gene [2]
1 | NC[C@H](O)c1ccc(O)c(O)c1 [norepinephrine] | ~2 fold | about 3 times
2 | CC[C@H](C)[C@H](NC(=O)[C@H](CC(=O)O)NC(=O)[C@H](CC(C)C)NC(=O)[C@H](Cc1c[nH]cn1)NC(=O)[C@@H]1CSSC[C@H](N)C(=O)N[C@@H](CO)C(=O)N[C@H]2CSSC[C@H](NC(=O)[C@H](CCC(=O)O)NC(=O)[C@H](CCCCN)NC(=O)[C@H](CC(=O)O)NC(=O)[C@H](CCSC)NC(=O)[C@H](CC(C)C)NC(=O)[C@H](CO)NC(=O)[C@H](CO)NC2=O)C(=O)N[C@@H](C(C)C)C(=O)N[C@@H](Cc2ccc(O)cc2)C(=O)N[C@@H](Cc2ccccc2)C(=O)N1)C(=O)N[C@H](C(=O)N[C@@H](Cc1c[nH]c2ccccc12)C(=O)O)[C@@H](C)CC [endothelin] | – | about 3 times

Source: patent US20030108951A1, “Use of diseases-associated gene” (priority 2000, published 2003)
